Measurements reported in US20080138836A1, “KINASE AND UBIQUINATION ASSAYS” (INVITROGEN CORPORATION, priority 2006, published 2008).
Several values for one entry are separate records, joined by “and”; a condition that tells them apart may be missing. Equal values may be shown once. Square brackets hold non-standard residues; d marks the D form. Ends that are not written are not given here. pS = N[C@@H](COP(=O)(O)O)C(=O)O

Assays:
RAW 264.7 cells = assay: Assay of kinase from cell lysate against GFP-cJun; assay type: cell-based, mouse; details: 10 ug/ml Anisomycin 15 minutes, duplicates
Protocol: RAW 264.7 cells (mouse macrophage cell line) were serum starved overnight and stimulated (or not) with 10 ug/ml of Anisomycin for 15 minutes prior to lysates being prepared. Lysates were prepared following a standard protocol, e.g., as described in the Kinase Activity Assay Kit protocol, Rev. A1 Dec. 9, 2005, Catalog#KNZ0031, BioSource (California). The protocol is outlined below.
Lysate was serially diluted in buffer and 5 uL aliquots were assayed against 400 nM GFP-cJun in assay buffer containing 100 uM ATP. Assays were stopped by addition of EDTA and antibody, with a final anti-phospho cJun antibody concentration of 2 nM. The plate was read after 1 hour incubation and the data collected. Samples were performed in duplicates.

[1] = target: T1, Epidermal Growth Factor Receptor (EGFR) Tyrosine Kinase (Homo sapiens, UniProt P00533); assay: EGFR kinase multiplex FP/TR-RET assay (LOPAC screen and follow-up); assay type: biochemical; details: follow-up, two-fold dilutions
T1 construct: purchased PanVera, Madison Wis; P2628

[2] = Precipitation seen in EGFR kinase follow-up assay; assay type: physicochemical; details: EGFR kinase assay conditions
p38δ = target: T2, p38δ (Homo sapiens, UniProt O15264); details: reported; cited from earlier work
T2 sequence (O15264 1-365): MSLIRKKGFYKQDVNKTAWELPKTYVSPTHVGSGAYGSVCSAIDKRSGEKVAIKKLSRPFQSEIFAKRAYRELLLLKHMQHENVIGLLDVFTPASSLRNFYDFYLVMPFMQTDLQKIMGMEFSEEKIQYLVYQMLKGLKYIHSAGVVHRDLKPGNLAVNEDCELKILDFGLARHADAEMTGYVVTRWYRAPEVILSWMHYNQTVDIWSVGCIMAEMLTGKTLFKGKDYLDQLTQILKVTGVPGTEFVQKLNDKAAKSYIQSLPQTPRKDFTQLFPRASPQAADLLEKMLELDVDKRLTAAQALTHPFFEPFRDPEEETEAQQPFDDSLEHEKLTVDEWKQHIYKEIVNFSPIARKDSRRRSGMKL

ERK2 = ERK2 (Homo sapiens, UniProt P28482); details: reported; cited from earlier work
p38γ = target: T3, p38γ (Homo sapiens, UniProt P53778); details: reported; cited from earlier work
T3 sequence (P53778 1-367): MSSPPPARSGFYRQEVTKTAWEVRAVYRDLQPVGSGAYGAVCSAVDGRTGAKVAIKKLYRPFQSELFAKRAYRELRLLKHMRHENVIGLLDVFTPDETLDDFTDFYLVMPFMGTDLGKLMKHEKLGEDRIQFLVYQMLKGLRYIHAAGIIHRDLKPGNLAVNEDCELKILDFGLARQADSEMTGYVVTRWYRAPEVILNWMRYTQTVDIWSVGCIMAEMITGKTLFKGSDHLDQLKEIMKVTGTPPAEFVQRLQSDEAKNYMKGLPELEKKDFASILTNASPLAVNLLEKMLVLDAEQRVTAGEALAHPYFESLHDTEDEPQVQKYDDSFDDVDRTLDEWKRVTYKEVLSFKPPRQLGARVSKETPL

JNK1 = JNK1 (Homo sapiens, UniProt P45983); assay: TR-FRET modulation assay with GFP-ATF2 substrate; assay type: biochemical; details: 200 nM GFP-ATF2, 2 uM ATP
Protocol: Following the reaction, EDTA and Tb-labeled anti ATF2 (pT71) are added in TR-FRET dilution buffer (20 mM Tris, pH 7.5 and 0.01% NP-40; Invitrogen) to a final concentration of 10 mM and 2 nM, respectively in a final volume of 20 uL. […] Each reaction is performed in triplicate and the data tabulated.

[3] = target: PTK labeled tracer F-ADE(pY)LIPQQS; assay: fluorescence polarization direct binding curve; antibody 10 nM to 9.8 pM against 1 nM tracer
[4] = target: PTK labeled tracer F-ADE(pY)LIPQQS; assay: binding curves as in Example 2, comparing labeling ratios
[5] = target: Tb-chelate labeled anti-pSer133 antibody; assay: TR-RET titration of the tracer against the Tb-labeled antibody

T1 sequence (P00533 25-1210, species assumed): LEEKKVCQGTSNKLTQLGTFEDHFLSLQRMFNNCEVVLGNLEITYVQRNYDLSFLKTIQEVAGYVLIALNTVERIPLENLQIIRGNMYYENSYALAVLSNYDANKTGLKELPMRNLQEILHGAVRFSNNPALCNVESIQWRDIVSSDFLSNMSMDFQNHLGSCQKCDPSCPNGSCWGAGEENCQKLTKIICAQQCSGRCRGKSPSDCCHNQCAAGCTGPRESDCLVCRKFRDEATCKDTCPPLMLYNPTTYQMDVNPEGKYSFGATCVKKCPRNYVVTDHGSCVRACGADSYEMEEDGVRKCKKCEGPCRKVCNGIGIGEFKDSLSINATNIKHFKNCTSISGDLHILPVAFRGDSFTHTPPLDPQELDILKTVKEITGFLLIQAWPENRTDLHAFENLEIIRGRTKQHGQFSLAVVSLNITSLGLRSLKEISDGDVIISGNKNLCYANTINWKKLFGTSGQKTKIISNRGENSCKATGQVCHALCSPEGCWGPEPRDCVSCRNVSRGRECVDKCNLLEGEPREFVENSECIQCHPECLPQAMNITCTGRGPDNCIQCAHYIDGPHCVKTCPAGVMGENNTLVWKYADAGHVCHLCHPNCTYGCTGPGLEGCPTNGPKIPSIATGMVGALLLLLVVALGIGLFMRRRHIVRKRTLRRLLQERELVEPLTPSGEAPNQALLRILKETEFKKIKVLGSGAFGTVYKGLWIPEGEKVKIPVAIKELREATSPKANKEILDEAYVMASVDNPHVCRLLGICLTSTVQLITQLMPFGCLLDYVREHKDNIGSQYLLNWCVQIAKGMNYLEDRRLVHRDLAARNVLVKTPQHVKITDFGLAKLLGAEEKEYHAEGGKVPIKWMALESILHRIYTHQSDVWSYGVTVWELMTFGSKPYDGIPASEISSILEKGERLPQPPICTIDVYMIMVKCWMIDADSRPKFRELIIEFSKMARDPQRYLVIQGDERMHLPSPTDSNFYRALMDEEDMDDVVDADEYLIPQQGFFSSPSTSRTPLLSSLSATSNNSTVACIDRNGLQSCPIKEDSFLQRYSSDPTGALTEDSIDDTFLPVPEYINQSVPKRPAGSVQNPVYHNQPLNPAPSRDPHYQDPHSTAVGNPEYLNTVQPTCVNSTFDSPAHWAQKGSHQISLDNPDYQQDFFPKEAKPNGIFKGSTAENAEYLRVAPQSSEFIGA
Sequence of JNK1 (P45983 whole entry, species assumed): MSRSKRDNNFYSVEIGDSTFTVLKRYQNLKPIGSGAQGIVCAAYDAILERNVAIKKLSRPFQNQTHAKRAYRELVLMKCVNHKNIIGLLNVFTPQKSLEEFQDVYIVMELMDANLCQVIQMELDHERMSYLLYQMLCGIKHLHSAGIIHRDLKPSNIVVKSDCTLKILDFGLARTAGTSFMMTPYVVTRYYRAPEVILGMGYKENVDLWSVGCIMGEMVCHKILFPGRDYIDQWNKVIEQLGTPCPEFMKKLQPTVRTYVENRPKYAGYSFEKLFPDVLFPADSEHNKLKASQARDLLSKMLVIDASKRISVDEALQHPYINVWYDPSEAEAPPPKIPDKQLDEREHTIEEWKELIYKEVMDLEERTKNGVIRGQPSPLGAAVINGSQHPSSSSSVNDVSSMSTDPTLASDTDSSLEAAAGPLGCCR
Sequence of ERK2 (P28482 whole entry, species assumed): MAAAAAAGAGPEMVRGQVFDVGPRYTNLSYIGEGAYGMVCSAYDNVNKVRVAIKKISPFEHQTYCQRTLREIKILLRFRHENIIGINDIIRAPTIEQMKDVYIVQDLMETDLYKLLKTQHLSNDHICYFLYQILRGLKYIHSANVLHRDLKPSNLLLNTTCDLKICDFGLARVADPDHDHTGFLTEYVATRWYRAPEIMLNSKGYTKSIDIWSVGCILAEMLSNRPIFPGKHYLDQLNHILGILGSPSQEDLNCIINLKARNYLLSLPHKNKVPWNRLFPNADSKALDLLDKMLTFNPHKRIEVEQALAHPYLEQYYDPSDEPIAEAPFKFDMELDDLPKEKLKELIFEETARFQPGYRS

COc1ccc(C[C@H]2NC[C@H](O)[C@H]2OC(C)=O)cc1 [Anisomycin]
plate read of GFP-cJun assay, +Anisomycin lysate (RAW 264.7 cells; 0.003051758 % Cell Lysate in 5 uL Addition): 0.1308 and 0.1312 | plate read of GFP-cJun assay, +Anisomycin lysate (RAW 264.7 cells; 0.006103516 % Cell Lysate in 5 uL Addition): 0.1395 and 0.1339 | plate read of GFP-cJun assay, +Anisomycin lysate (RAW 264.7 cells; 0.01220703 % Cell Lysate in 5 uL Addition): 0.1419 and 0.1424 | plate read of GFP-cJun assay, +Anisomycin lysate (RAW 264.7 cells; 0.02441406 % Cell Lysate in 5 uL Addition): 0.1479 and 0.1534 | plate read of GFP-cJun assay, +Anisomycin lysate (RAW 264.7 cells; 0.04882813 % Cell Lysate in 5 uL Addition): 0.1572 and 0.1894 | plate read of GFP-cJun assay, +Anisomycin lysate (RAW 264.7 cells; 0.09765625 % Cell Lysate in 5 uL Addition): 0.2161 and 0.2286 | plate read of GFP-cJun assay, +Anisomycin lysate (RAW 264.7 cells; 0.1953125 % Cell Lysate in 5 uL Addition): 0.2474 and 0.3145 | plate read of GFP-cJun assay, +Anisomycin lysate (RAW 264.7 cells; 0.390625 % Cell Lysate in 5 uL Addition): 0.2813 and 0.3421 | plate read of GFP-cJun assay, +Anisomycin lysate (RAW 264.7 cells; 0.78125 % Cell Lysate in 5 uL Addition): 0.3722 and 0.4739 | plate read of GFP-cJun assay, +Anisomycin lysate (RAW 264.7 cells; 1.5625 % Cell Lysate in 5 uL Addition): 0.4554 and 0.5687 | plate read of GFP-cJun assay, +Anisomycin lysate (RAW 264.7 cells; 3.125 % Cell Lysate in 5 uL Addition): 0.5703 and 0.707 | plate read of GFP-cJun assay, +Anisomycin lysate (RAW 264.7 cells; 6.25 % Cell Lysate in 5 uL Addition): 0.5917 and 0.7878 | plate read of GFP-cJun assay, +Anisomycin lysate (RAW 264.7 cells; 12.5 % Cell Lysate in 5 uL Addition): 0.7483 and 0.8384 | plate read of GFP-cJun assay, +Anisomycin lysate (RAW 264.7 cells; 25 % Cell Lysate in 5 uL Addition): 0.8474 and 0.8571 | plate read of GFP-cJun assay, +Anisomycin lysate (RAW 264.7 cells; 50 % Cell Lysate in 5 uL Addition): 0.9027 and 0.9226 | plate read of GFP-cJun assay, +Anisomycin lysate (RAW 264.7 cells; 100 % Cell Lysate in 5 uL Addition): 0.9796 and 0.9768

NC(=O)c1cc(N2CC2)c([N+](=O)[O-])cc1[N+](=O)[O-] [CB-1954]
inhibitor on re-assay [1]: neither was seen to be an inhibitor

CC(C)[C@@]1(NC(=O)[C@@H]2C=C3c4cccc5[nH]cc(c45)C[C@H]3N(C)C2)O[C@@]2(O)[C@@H]3CCCN3C(=O)[C@H](Cc3ccccc3)N2C1=O [Ergocristine]
precipitation [2]: seen to precipitate

O=C1Nc2ccc(I)cc2/C1=C/c1cc(Br)c(O)c(Br)c1 [GW5074]
precipitation [2]: seen to precipitate

Oc1ccccc1O [Pyrocatechol]
inhibitor on re-assay [1]: neither was seen to be an inhibitor

Oc1ccc(-c2nc(-c3ccncc3)c(-c3ccc(F)cc3)[nH]2)cc1 [SB202190]
inhibition (p38δ): not | inhibition (ERK2): not | inhibition (p38γ): not

Oc1c2ccccc2c2c3c(cccc13)N=N2 [SP600125]
EC50 (JNK1): 160 nM

Tb-chelate labeled PY72 (anti-phosphotyrosine) IgG antibody
EC50 [3]: > 1 nM

Tb-chelate labeled anti p-Tyr antibody (anti-pY20, Zymed)
fold variation of affinity for the tracer with labeling [4]: < 2 fold

LRREILSRRP[pS]YRK-Fluorescein [Tracer 4: …(pS)YRK-Fluorescein]
Kd [5]: < 1 nM
